Data as given in patent US12247033B2, “Triazole-substituted imidazo[1,2-a]pyrimidines as cGAS inhibitors” (GlaxoSmithKline Intellectual Property Development Limited, priority 2022, dated 2025).
Counter-ions that a name gives are not always drawn.

Assays:
[1] = molecular target: human CGAS (157-522) (Homo sapiens, UniProt Q8N884); test: biochemical;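 note: biochemical enzyme reaction, 2′3′-cGAMP product measured by RapidFire mass spectrometry (MRM) normalised to c-di-UMP internal standard, inhibition of product formation relative to high and low control wells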
Description: Compounds were serially diluted 2, 3, or 4-fold in neat DMSO to generate 11-point dose response curves and then 250 nL compound or DMSO solution was transferred to Greiner 384-well V-bottom assay plates (Catalog #781280) using an Echo acoustic dispenser (Labcyte). A solution of 150 μM ATP, 150 μM GTP, 20 μM pppGpA (GTP-2′5′-AMP, custom synthesis from ChemGenes), and 10 μg/mL sheared salmon sperm DNA (Sigma, Catalog #D1626) in assay buffer (20 mM Trizma, pH 7.5, 10 mM magnesium chloride, 0.3 mM CHAPS, and 0.01% (w/v) bovine serum albumin) was added to columns 1-17, 19-24 of the plate at 12.5 μL/well using a Combi liquid handler (ThermoFisher). A 12.5 μL/well low control solution containing 150 μM ATP, 150 μM GTP, 20 μM pppGpA in assay buffer was added to column 18 using the Combi. A 12.5 μL/well solution of 10-100 nM human CGAS (157-522) in assay buffer was then added to all wells of the plate using the Combi. […] Reactions were quenched by added 50 μL/well of 0.5% (v/v) trifluoroacetic acid (TFA) in mass spectrometry grade deionized water containing 5 μM cyclic-di-UMP (ci-di-UMP; Invivogen Catalog #tlrl-cdu) as the internal standard (IS). Plates were centrifuged for 1 min and then quenched reactions were analyzed using a RF-MS 300 system operating in a Multiple Reaction Monitoring (MRM) detection mode.
Samples (10 μL injection volume) were passed over a silica C18/type C solid phase extraction (SPE) cartridge for analyte (2′3′-cyclic guanosine monophosphate adenosine monophosphate (2′3′-cGAMP), product of biochemical reaction)/pppGpA/c-di-UMP IS adsorption. Adsorbed samples were desalted for 3000 ms using a 100% water eluent A/desalting solution. Afterwards, desalted samples were eluted using a 0.5% TFA in 20%/80% acetonitrile/water eluent B/elution solution directly into either a Sciex 4000, 5000 or 5500 triple quadrupole mass spectrometer (QQQ-MS) for MRM analyte/IS detection. QQQ-MS detection conditions were as follow: scan type: MRM; curtain (CUR) gas: 30 psi; nebulizer (GS1) gas: 50 psi; drying (GS2) gas: 60 psi; collisionally activated dissociation (CAD) gas: 12 relative setting; precursor ion (Q1) masses: 2′3′-cGAMP: m/z 675.1 Da/pppGpA: m/z 853.0 Da/c-di-UMP: m/z 613.1 Da; fragment ion (Q3) masses: 2′3′-cGAMP: m/z 524.1 Da/pppGpA: m/z 702.0 Da/c-di-UMP: 307.1 Da; declustering potentials (DPs): 2′3′-cGAMP: +81 V/pppGpA: +85 V/c-di-UMP: +85 V; entrance potential: +10 V (all analytes); collision energies (CEs): 2′3′-cGAMP: +33 V/pppGpA: +36 V/c-di-UMP: +35 V; collision cell exit potential (CXP): +10 V (all analytes); interface heater (Sciex 4000/5000 only): on; Q1 resolution: unit (all analyte); Q3 resolution: unit (all analytes). The area under the curve (AUC) for all analytes was obtained using the RapidFire Integrator software application to calculate AUC-2′3′-cGAMP/AUC-c-di-UMP intensity ratio. Percent product formation was calculated by comparison to column 6 (high control)/column 18 (low control) responses. The % product inhibition was calculated as follows:
[formula] where A is the minimum response, B is the maximum response, C is the log10*XC50, D is the slope factor, and x is the log10 compound concentration [M] in ABASE XE.

[2] = system: CGAS; test: CGAS whole blood cytokine release assay (384-well, BacMam stimulation, IP-10 by cytometric bead array); assay type: cell-based; details: Homo sapiens, 6 h; read-out: hWB pXC50 (converted)
In short: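 Heparinised human donor whole blood mixed with serially diluted compound plus Null BacMam stimulus, incubated 6 h at 37° C, 5% CO2. Supernatant IP-10 quantified by cytometric bead array on flow cytometer (488 nm excitation, 585/40 nm emission); inhibition of IP-10 calculated.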

Sequence of human CGAS (157-522) (Q8N884 157-522): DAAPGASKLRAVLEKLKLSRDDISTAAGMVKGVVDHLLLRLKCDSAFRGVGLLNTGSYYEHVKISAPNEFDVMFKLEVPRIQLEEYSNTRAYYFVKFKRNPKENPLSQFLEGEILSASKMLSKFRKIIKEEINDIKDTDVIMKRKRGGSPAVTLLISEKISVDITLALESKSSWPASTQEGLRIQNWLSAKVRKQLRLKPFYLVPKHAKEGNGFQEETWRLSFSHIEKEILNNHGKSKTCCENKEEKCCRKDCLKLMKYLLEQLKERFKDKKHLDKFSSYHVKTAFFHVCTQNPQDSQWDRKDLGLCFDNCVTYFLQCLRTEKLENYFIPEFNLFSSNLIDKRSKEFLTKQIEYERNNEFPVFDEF

| Structure (SMILES) | IC50 [1] [nM] | IC50 [2] [nM] |
| --- | --- | --- |
| FC(F)(F)c1n[nH]c(-c2nc3ncc(COCC4CCOC4)cn3c2-c2cnc[nH]2)n1 (stereo not drawn) [Example 126, 5-[3-(1H-imidazol-5-yl)-6-{[(oxolan-3-yl)methoxy]methyl}imidazo[1,2-a]pyrimidin-2-yl]-3-(trifluoromethyl)-1H-1,2,4-triazole] | 7.94 | 501 |
| CCOCCOCc1cnc2nc(-c3nc(C(F)(F)F)n[nH]3)c(-c3cnc[nH]3)n2c1 [Example 129, 5-{6-[(2-ethoxyethoxy)methyl]-3-(1H-imidazol-5-yl)imidazo[1,2-a]pyrimidin-2-yl}-3-(trifluoromethyl)-1H-1,2,4-triazole] | 7.94 | 316 |
| FC(F)(F)c1n[nH]c(-c2nc3ncc(Cc4ccccc4)cn3c2-c2cnc[nH]2)n1 [Example 89, 5-[6-benzyl-3-(1H-imidazol-5-yl)imidazo[1,2-a]pyrimidin-2-yl]-3-(trifluoromethyl)-1H-1,2,4-triazole] | 2.51 | 1580 |
| CC1COC(COCc2cnc3nc(-c4nc(C(F)(F)F)n[nH]4)c(-c4c[nH]cn4)n3c2)C1 (stereo not drawn) [Example 156, 5-[3-(1H-imidazol-4-yl)-6-{[(4-methyloxolan-2-yl)methoxy]methyl}imidazo[1,2-a]pyrimidin-2-yl]-3-(trifluoromethyl)-1H-1,2,4-triazole] | 10 | 631 |
| O=S1(=O)CCc2nc3nc(-c4nc(C(F)(F)F)n[nH]4)c(-c4cnc[nH]4)n3cc2C1 [Example 104, 6-(1H-imidazol-5-yl)-5-[3-(trifluoromethyl)-1H-1,2,4-triazol-5-yl]-11λ^6-thia-2,4,7-triazatricyclo[7.4.0.0^3,^7]trideca-1,3,5,8-tetraene-11,11-dione] | 3.98 | 6310 |
| FC(F)c1cnc2nc(-c3nc(C(F)(F)F)n[nH]3)c(-c3c[nH]cn3)n2c1 [Example 120, 5-[6-(difluoromethyl)-3-(1H-imidazol-4-yl)imidazo[1,2-a]pyrimidin-2-yl]-3-(trifluoromethyl)-1H-1,2,4-triazole] | 6.31 | 631 |
| O=C(O)CCOC(=O)OCn1nc(C(F)(F)F)nc1-c1nc2ncccn2c1-c1cnc[nH]1 [Example 33, 3-{[({5-[3-(1H-imidazol-5-yl)imidazo[1,2-a]pyrimidin-2-yl]-3-(trifluoromethyl)-1H-1,2,4-triazol-1-yl}methoxy)carbonyl]oxy}propanoic acid, 2 trifluoroacetic acid salt] | 316 | 501 |
| FC(F)CN1CC(Oc2cnc3nc(-c4nc(C(F)(F)F)n[nH]4)c(-c4cnc[nH]4)n3c2)C1 [Example 162, 5-(6-{[1-(2,2-difluoroethyl)azetidin-3-yl]oxy}-3-(1H-imidazol-5-yl)imidazo[1,2-a]pyrimidin-2-yl)-3-(trifluoromethyl)-1H-1,2,4-triazole] | 7.94 | 1000 |
| Fc1cn2c(-c3cnc[nH]3)c(-c3nc(C(F)(F)F)n[nH]3)nc2nc1C(F)(F)F [Example 125, 5-[6-fluoro-3-(1H-imidazol-5-yl)-7-(trifluoromethyl)imidazo[1,2-a]pyrimidin-2-yl]-3-(trifluoromethyl)-1H-1,2,4-triazole] | 15.8 | 3160 |
| FC(F)(F)c1n[nH]c(-c2nc3nc(C(F)(F)F)c(Cl)cn3c2-c2cnc[nH]2)n1 [Example 128, 5-[6-chloro-3-(1H-imidazol-5-yl)-7-(trifluoromethyl)imidazo[1,2-a]pyrimidin-2-yl]-3-(trifluoromethyl)-1H-1,2,4-triazole] | 12.6 | 3160 |
| CS(=O)(=O)c1cnc2nc(-c3nc(C(F)(F)F)n[nH]3)c(-c3cnc[nH]3)n2c1 [Example 22, 5-[3-(1H-imidazol-5-yl)-6-methanesulfonylimidazo[1,2-a]pyrimidin-2-yl]-3-(trifluoromethyl)-1H-1,2,4-triazole] | 25.1 | 7940 |
| CC(=O)c1ccn2c(-c3cnc[nH]3)c(-c3nc(C(F)(F)F)n[nH]3)nc2n1 [Example 14, 1-[3-(1H-imidazol-5-yl)-2-[3-(trifluoromethyl)-1H-1,2,4-triazol-5-yl]imidazo[1,2-a]pyrimidin-7-yl]ethan-1-one] | 10 | 63.1 |
| FC(F)(F)c1n[nH]c(-c2nc3ncc(C4CCOC4)cn3c2-c2cnc[nH]2)n1 (stereo not drawn) [Example 66, 5-[3-(1H-imidazol-5-yl)-6-(oxolan-3-yl)imidazo[1,2-a]pyrimidin-2-yl]-3-(trifluoromethyl)-1H-1,2,4-triazole] | 2.51 | 316 |
| CC(NCc1ccn2c(-c3c[nH]cn3)c(-c3nc(C(F)(F)F)n[nH]3)nc2n1)C(F)(F)F (stereo not drawn) [Example 118, {[3-(1H-imidazol-4-yl)-2-[3-(trifluoromethyl)-1H-1,2,4-triazol-5-yl]imidazo[1,2-a]pyrimidin-7-yl]methyl}(1,1,1-trifluoropropan-2-yl)amine] | 12.6 | 631 |
| FC(F)c1n[nH]c(-c2nc3ncccn3c2-c2cnc[nH]2)n1 [Example 50, 3-(difluoromethyl)-5-[3-(1H-imidazol-5-yl)imidazo[1,2-a]pyrimidin-2-yl]-1H-1,2,4-triazole] | 3.16 | 79.4 |
| CC(=O)N1CCC(COCc2cnc3nc(-c4nc(C(F)(F)F)n[nH]4)c(-c4c[nH]cn4)n3c2)C1 (stereo not drawn) [Example 149, 1-[3-({[3-(1H-imidazol-4-yl)-2-[3-(trifluoromethyl)-1H-1,2,4-triazol-5-yl]imidazo[1,2-a]pyrimidin-6-yl]methoxy}methyl)pyrrolidin-1-yl]ethan-1-one] | 10 | 10000 |
| COc1cnc2nc(-c3nc(C(F)(F)F)n[nH]3)c(-c3cnc[nH]3)n2c1 [Example 58, 5-[3-(1H-imidazol-5-yl)-6-methoxyimidazo[1,2-a]pyrimidin-2-yl]-3-(trifluoromethyl)-1H-1,2,4-triazole] | 10 | 316 |
| FC(F)(F)c1n[nH]c(-c2nc3ncc(C4CCCC4)cn3c2-c2cnc[nH]2)n1 [Example 16, 5-[6-cyclopentyl-3-(1H-imidazol-5-yl)imidazo[1,2-a]pyrimidin-2-yl]-3-(trifluoromethyl)-1H-1,2,4-triazole, trifluoroacetic acid salt] | 3.98 | 3160 |
| FC(F)(F)c1n[nH]c(-c2nc3ncc(COCCC4CCOC4)cn3c2-c2cnc[nH]2)n1 (stereo not drawn) [Example 139, 5-[3-(1H-imidazol-5-yl)-6-{[2-(oxolan-3-yl)ethoxy]methyl}imidazo[1,2-a]pyrimidin-2-yl]-3-(trifluoromethyl)-1H-1,2,4-triazole] | 7.94 | 398 |
| FC(F)(F)c1n[nH]c(-c2nc3ncc(CN4CCOCC4)cn3c2-c2c[nH]cn2)n1 [Example 70, 4-{[3-(1H-imidazol-4-yl)-2-[3-(trifluoromethyl)-1H-1,2,4-triazol-5-yl]imidazo[1,2-a]pyrimidin-6-yl]methyl}morpholine] | 3.16 | 2000 |
| Nc1ccn2c(-c3cnc[nH]3)c(-c3nc(C(F)(F)F)n[nH]3)nc2n1 [Example 107, 3-(1H-imidazol-5-yl)-2-[3-(trifluoromethyl)-1H-1,2,4-triazol-5-yl]imidazo[1,2-a]pyrimidin-7-amine] | 2.51 | 631 |
| FC(F)c1n[nH]c(-c2nc3ncccn3c2-c2cn[nH]c2)n1 [Example 90, 3-(difluoromethyl)-5-[3-(1H-pyrazol-4-yl)imidazo[1,2-a]pyrimidin-2-yl]-1H-1,2,4-triazole] | 10 | 1000 |
| FC(F)(F)c1ccn2c(-c3cnc[nH]3)c(-c3nc(C(F)(F)F)n[nH]3)nc2n1 [Example 3, 5-[3-(1H-imidazol-5-yl)-7-(trifluoromethyl)imidazo[1,2-a]pyrimidin-2-yl]-3-(trifluoromethyl)-1H-1,2,4-triazole] | 6.31 | 794 |
| FC(F)(F)c1n[nH]c(-c2nc3nc4c(cn3c2-c2cnc[nH]2)COCC4)n1 [Example 71, 6-(1H-imidazol-5-yl)-5-[3-(trifluoromethyl)-1H-1,2,4-triazol-5-yl]-11-oxa-2,4,7-triazatricyclo[7.4.0.0^3,^7]trideca-1,3,5,8-tetraene] | 5.01 | 126 |
| CCCOc1cnc2nc(-c3nc(C(F)(F)F)n[nH]3)c(-c3cnc[nH]3)n2c1 [Example 154, 5-[3-(1H-imidazol-5-yl)-6-propoxyimidazo[1,2-a]pyrimidin-2-yl]-3-(trifluoromethyl)-1H-1,2,4-triazole] | 3.98 | 501 |
| FC(F)c1ccn2c(-c3cnc[nH]3)c(-c3nc(C(F)F)n[nH]3)nc2n1 [Example 8, 3-(difluoromethyl)-5-[7-(difluoromethyl)-3-(1H-imidazol-5-yl)imidazo[1,2-a]pyrimidin-2-yl]-1H-1,2,4-triazole] | 3.16 | 200 |
| CSc1ccn2c(-c3cnc[nH]3)c(-c3nc(C(F)(F)F)n[nH]3)nc2n1 [Example 21, 5-[3-(1H-imidazol-5-yl)-7-(methylsulfanyl)imidazo[1,2-a]pyrimidin-2-yl]-3-(trifluoromethyl)-1H-1,2,4-triazole] | 5.01 | 631 |
| CC(=O)OCn1cnc(-c2c(-c3nc(C(F)(F)F)nn3COC(C)=O)nc3ncccn23)c1 [Example 84, [5-(3-{1-[(acetyloxy)methyl]-1H-imidazol-4-yl}imidazo[1,2-a]pyrimidin-2-yl)-3-(trifluoromethyl)-1H-1,2,4-triazol-1-yl]methyl acetate] | 15800 | 158 |
| FC(F)(F)c1n[nH]c(-c2nc3ncc(COCCC4CCCO4)cn3c2-c2cnc[nH]2)n1 (stereo not drawn) [Example 141, 5-[3-(1H-imidazol-5-yl)-6-{[2-(oxolan-2-yl)ethoxy]methyl}imidazo[1,2-a]pyrimidin-2-yl]-3-(trifluoromethyl)-1H-1,2,4-triazole] | 3.98 | 316 |
| N#Cc1ccn2c(-c3c[nH]cn3)c(-c3nc(C(F)(F)F)n[nH]3)nc2n1 [Example 124, 3-(1H-imidazol-4-yl)-2-[3-(trifluoromethyl)-1H-1,2,4-triazol-5-yl]imidazo[1,2-a]pyrimidine-7-carbonitrile] | 6.31 | 158 |
